Reference: US10709724B2, “Methods of treating mitochondrial dysfunction” (Ecole Polytechnique Federale de Lausanne (EPFL), priority 2011, dated 2020)

Assays:
[1] = test system: AMP-activated protein kinase (AMPK); experiment: AMPK activity (ACC phosphorylation) in C2C12 myotubes; format: cell-based; conditions: 24 hrs
Description: Immunoprecipitation, SDS-PAGE, Western Blotting. Cells were lysed in lysis buffer (50 mM Tris, […], EDTA 1 mM, NP40 1%, nicotinamide 5 mM, Na-butyrate 1 in M, protease inhibitors pH7.4). Proteins were separated by SDS-PAGE and transferred onto nitrocellulose membranes. The origin of the primary and secondary antibodies used can be found as supplemental experimental procedures. Reactions were developed by enhanced chemiluminescence (Amersham, Little Chalfont, UK), PGC-1α, FOXO1 and Ndufa9 acetylation levels were analyzed by immunoprecipitation from cellular or nuclear lysates of tissues with anti-PGC-1α (Millipore), anti-FOXO1 (Cell Signaling, Danvers, Mass., USA) and anti-Ndufa9 (Abcam) antibody followed by Western blot using an acetyl-lysine antibody (Cell Signaling) that was normalized to total PGC-1a/FOXO1/Ndufa9 levels (Lagouge et al., 2006; Rodgers et al., 2005). In HEK293T cells HA-tagged PGC-1α was overexpressed and was immunoprecipitated using an anti-HA. […] All blots were quantified by densitometry using ImageJ software. […] PGC-1 acetylation was determined using PGC-1 immunoprecipitates from 2 mg of protein extracts, as described in Canto et al. (Canto et al., AMPK regulates energy expenditure by modulating NAD+ metabolism and SIRT1 activity. Nature 458, 1056 (2009)).

[2] = test system: C57Bl/6J mice; experiment: Sirtuin activity and mitochondrial biogenesis in tissues after chronic NR feeding; format: in vivo
Description: (§1) mRNA and mtDNA Analysis. Total RNA was prepared using TRIzol (Invitrogen) according to the manufacturer's instructions. RNA was treated with DNase, and 2 μg of RNA was used for reverse transcription (RT). cDNA was purified on QIAquick PCR cleanup columns (Qiagen, Valencia, Calif., USA). 50× diluted cDNA was used for RT-quantitative PCR (RT-VCR) VCR) reactions (Bai et al., 2007). The RT-qPCR reactions were performed using the Light-Cycler system (Roche Applied Science) and a qPCR Supermix (Qiagen) with the primers for mice summarized in Table 1 and 4, and with the primers for worms summarized on Table 7. mtDNA quantification was performed as described (Lagouge et al., 2006) with the primers indicated in Table 2 and 5.
(§2) Immunoprecipitation, SDS-PAGE, Western Blotting. Cells were lysed in lysis buffer (50 mM Tris, […], EDTA 1 mM, NP40 1%, nicotinamide 5 mM, Na-butyrate 1 in M, protease inhibitors pH7.4). Proteins were separated by SDS-PAGE and transferred onto nitrocellulose membranes. The origin of the primary and secondary antibodies used can be found as supplemental experimental procedures. Reactions were developed by enhanced chemiluminescence (Amersham, Little Chalfont, UK), PGC-1α, FOXO1 and Ndufa9 acetylation levels were analyzed by immunoprecipitation from cellular or nuclear lysates of tissues with anti-PGC-1α (Millipore), anti-FOXO1 (Cell Signaling, Danvers, Mass., USA) and anti-Ndufa9 (Abcam) antibody followed by Western blot using an acetyl-lysine antibody (Cell Signaling) that was normalized to total PGC-1a/FOXO1/Ndufa9 levels (Lagouge et al., 2006; Rodgers et al., 2005). In HEK293T cells HA-tagged PGC-1α was overexpressed and was immunoprecipitated using an anti-HA. In C2C12 myotubes, FLAG-HA tagged PGC-1α was introduced through adenoviral delivery 2 days before treatments, then IP was performed using anti-FLAG antibody and samples were processed as described. All blots were quantified by densitometry using ImageJ software. Poly(ADP-Ribose) detection was performed as previously described with slight modifications (Bai et al., PARP-1 inhibition increases mitochondrial metabolism through SIRT1 activation. Cell Metab 13, 461-468. (2011)) Briefly, PAR was detected by using a monoclonal anti-PAR antibody (Alexis, Lausanne Switzerland) by Western blotting of total protein lysates, using either […] of total worm protein lysates, […] of liver protein lysate or 200 g of muscle total protein extracts. PGC-1 acetylation was determined using PGC-1 immunoprecipitates from 2 mg of protein extracts, as described in Canto et al. (Canto et al., AMPK regulates energy expenditure by modulating NAD+ metabolism and SIRT1 activity. Nature 458, 1056 (2009)).
Mitochondrial DNA Measurement The assay was performed as described (Lagouge et al., 2006). DNA. was extracted using the standard proteinase K digestion following phenol-chloroform extraction. Mitochondrial and genomic DNA was determined using specific primers in qPCR reactions (primers summarized in Table 2 and 5.) and was expressed as percentage of WT.
Determination of Protein Acetylation Status PGC-1α, FOXO1 and Ndufa9 acetylation was analyzed by immunoprecipitation of PGC-1, FOXO1 and Nduf9a from nuclear lysates of tissues with anti-PGC-1α (Millipore), anti-FOXO1 (1 mg, Cell Signaling, Danvers, Mass., USA), or Ndufa9 (Abeam) antibody followed by Western blot using an acetyl-lysine antibody (Cell Signaling) that was normalized to total PGC-1α/FOXO1/Ndufa9 (Canto et al., 2009). Tribulin acetylation was assessed by Western blotting of total protein samples by acetylated tubulin-specific antibody (Sigma) that was then normalized for total tubrilin (Santa Cruz).

[3] = test system: C57Bl/6J mice; experiment: Hyperinsulinemic-euglycemic clamp in CD and CD-NR mice; format: in vivo; conditions: 4 weeks of treatment
Description: Hyperinsulinemic-euglycemic clamps were performed as described (Lagouge et al., 2006).

[4] = test system: C57Bl/6J mice; experiment: NAD+ metabolism in tissues after chronic NR feeding; format: in vivo
Description: as §1, §2
NAD^+ NAM Determination. NAD^+ levels in cultured cells were determined using a commercial kit (Enzychrom™, BioAssays Systems, CA). For tissue samples NAD^+ and NAM levels were determined as described in (Sauve et al., 2005). In brief, to a weighed aliquot of frozen pulverized tissue we added as standards, ^18O-NAD^+ (typically 2.00 nmol) and ^18O-NAM (typically 2.00 nmol). 70 L of ice-cold 7% perchloric acid was then added and the sample was vortexed and sonicated three times, then centrifuged. Clear supernatant was removed and neutralized by additions of 3 M NaOH and 1 M phosphate buffer (pH=9), then centrifuged. Clear supernatant was injected onto HPLC C-18 column with 20 mM ammonium acetate eluent to separate NAD^+ and NAM from other cellular components, NAD^+ and NAM peaks (260 nm absorbance) were collected. Collections were lyophilized to dryness and subjected to MALDI-TOF analysis. For NAD^+ measurement, ratio of intensities for m/z=664 and 666 peaks, corresponding to ^16O- and ^18O-NAD^+ isotopomers, was multiplied by 2.00 nmol and then divided by tissue weight to determine NAD+ concentration in the sample. […]

| SMILES | AMPK activity (ACC phosphorylation levels) [1] | expression of oxidative metabolism regulators and mitochondrial genes in quadriceps muscle ([2]; HFD 16 weeks) | mitochondrial DNA content in muscle ([2]; HFD 16 weeks) | mitochondrial proteins (Complex V ATP synthase subunit α, porin) in muscle, liver and BAT ([2]; HFD 16 weeks) | mitochondrial proteins in brain or WAT ([2]; HFD 16 weeks) | acetylation of SIRT1 and SIRT3 targets (FOXO1, SOD2) in skeletal muscle, liver and BAT ([2]; HFD 16 weeks, NR 400 mg/kg/day) | acetylation status of the SIRT2 target tubulin ([2]; NR 400 mg/kg/day) | glucose infusion rate to maintain euglycemia, vs vehicle [3] | insulin-induced muscle glucose uptake [3] | NAD+ levels in liver and muscle ([4]; CD and HFD, chronic NR 400 mg/kg/day) | NAD+ in BAT ([4]; chronic NR 400 mg/kg/day) | NAD+ levels in brain or white adipose tissue (WAT) ([4]; chronic NR 400 mg/kg/day) | NADH levels in muscle ([4]; gastrocnemius, HFD 16 weeks) | nicotinamide (NAM) levels in muscle ([4]; gastrocnemius, HFD 16 weeks) | Nampt mRNA and protein levels ([4]; quadriceps, HFD 16 weeks) | mRNA expression of NMNAT enzymes ([4]; quadriceps, HFD 16 weeks) |
| --- | --- | --- | --- | --- | --- | --- | --- | --- | --- | --- | --- | --- | --- | --- | --- | --- |
| CN(C)CC(=O)Nc1ccc2[nH]c(=O)c3ccccc3c2c1 [PJ34] | does not alter AMPK activity | – | – | – | – | – | – | – | – | – | – | – | – | – | – | – |
| NC(=O)c1ccc[n+]([C@@H]2O[C@H](CO)[C@@H](O)[C@H]2O)c1 [NR, nicotinamide riboside] | – | either an elevated expression or a strong tendency towards an increase | increased in muscle | prominent increase in mitochondrial proteins | such change was not observed in brain or WAT | prominent deacetylation | could not detect changes | ~2 fold | very marked increase | increased NAD^+ levels | higher in the BAT of NR-fed mice, but only on HFD | but not in others, such as brain or white adipose tissue (WAT) | largely diminished | largely diminished | levels were also similar | could not detect differences |
